Among the data in patent US20230339939A1 (Bayer Aktiengesellschaft, priority 2020, published 2023) are IC50 values, retold here.

One test deals with CSNK1D (Homo sapiens (Human), UniProt P48730). Kind of test: CSNK1D Assay (ADP-Glo, 1 μM ATP). It is filed as biochemical. As to conditions: median, read-out: CSNK1D IC50 [mol/l] (median). The procedure: CSNK1D-inhibitory activity of compounds of the present invention in presence of 1 μM adenosine-tri-phosphate (ATP) was quantified employing the CSNK1 D assay as described in the following paragraphs. In essence, the enzyme activity is measured by quantification of the adenosine-di-phosphate (ADP), which is generated as a co-product of the enzyme reaction, via the “ADP-Glo™ Kinase Assay” kit from the company Promega. This detection system works as follows: In a first step the ATP not consumed in the kinase reaction is quantitatively converted to cAMP employing an adenylate cyclase (“ADP-Glo-reagent”), then the adenylate cyclase is stopped and the ADP generated in the kinase reaction converted to ATP which generates in a luciferase-based reaction a glow-luminescence signal (“Kinase Detection Reagent”).
Sequence of CSNK1D (P48730 whole entry): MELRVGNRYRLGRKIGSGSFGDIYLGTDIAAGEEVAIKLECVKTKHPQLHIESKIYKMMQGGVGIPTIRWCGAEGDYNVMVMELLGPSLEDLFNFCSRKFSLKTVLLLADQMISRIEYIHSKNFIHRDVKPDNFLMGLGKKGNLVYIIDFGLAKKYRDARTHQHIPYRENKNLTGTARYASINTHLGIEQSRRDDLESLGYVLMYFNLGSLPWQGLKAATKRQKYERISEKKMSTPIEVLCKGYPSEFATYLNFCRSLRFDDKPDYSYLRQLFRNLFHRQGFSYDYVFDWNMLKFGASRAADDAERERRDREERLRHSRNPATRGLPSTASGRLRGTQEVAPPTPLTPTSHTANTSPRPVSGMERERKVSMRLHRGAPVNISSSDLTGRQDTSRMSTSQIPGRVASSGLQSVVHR
Recombinant fusion protein of N-terminal Glutathion-S-Transferase (GST) and full-length human CSNK1D, expressed by baculovirus infected insect cells and purified via Glutathion affinity chromatography, was purchased from Life Technologies (product no. PV3665) and used as enzyme. As substrate for the kinase reaction the biotinylated peptide Btn-Ahx-[…] (C-terminus in amide form) was used which can be purchased e.g. from the company Biosyntan (Berlin-Buch, Germany).
For the assay 50 nl of a 100 fold concentrated solution of the test compound in DMSO was pipetted into a white 1536-well microtiter plate (Greiner Bio-One, Frickenhausen, Germany), 2 μL of a solution of CSNK1D in aqueous assay buffer [50 mM HEPES pH 7.5, 10% (v/v) glycerol, 10 mM MgCl2, 50 mM NaCl, 1 mM dithiothreitol, 0.01% (w/v) bovine serum albumin, 0.01% (v/v) Triton X-100] were added and the mixture was incubated for 15 min at 22° C. to allow pre-binding of the test compounds to the enzyme before the start of the kinase reaction. […] The concentration of CSNK1D was adjusted depending of the activity of the enzyme lot and was chosen appropriate to have the assay in the linear range, a typical concentration is about 0.5 ng/μL. The reaction was stopped by the addition of 2.5 μL of “ADP-Glo-reagent” (1:1.5 fold diluted with water) and the resulting mixture was incubated at 22° C. for 1 h to convert the ATP not consumed in the kinase reaction completely […]. Subsequently 2.5 μL of the “kinase detection reagent” (1.2 fold more concentrated than recommended by the producer) were added, the resulting mixture was incubated at 22° C. for 1 h and then the luminescence measured with a suitable measurement instrument (e.g. Viewlux™ from Perkin-Elmer). The amount of emitted light was taken as a measure for the amount of ADP generated and thereby for the activity of the CSNK1D.

The target of test [1] is wild-type Epidermal Growth Factor Receptor (EGFR) (Homo sapiens (Human), UniProt P00533). Briefly: WT-EGFR Kinase Assay (TR-FRET, 2 mM ATP). It is filed as biochemical. The source says:
Inhibitory activity of compounds of the present invention against wild-type Epidermal Growth Factor Receptor (EGFR) was quantified employing the TR-FRET based EGFR assay as described in the following paragraphs.
Recombinant fusion protein of N-terminal Glutathion-S-Transferase (GST) and a fragment of human EGFR (amino acids R669 to A1210), expressed in Sf9 insect cells and purified via affinity chromatography using Glutathion Sepharose as described above, was used as kinase. As substrate for the kinase reaction the biotinylated peptide biotin-Ahx-[…] (C-terminus in amide form) was used which can be purchased e.g. form the company Biosynthan GmbH (Berlin-Buch, Germany).
For the assay 50 nl of a 100 fold concentrated solution of the test compound in DMSO was pipetted into either a black low volume 384 well microtiter plate or a black 1536 well microtiter plate (both Greiner Bio-One, Frickenhausen, Germany), 2 μL of a solution of EGFR in aqueous assay buffer [50 mM Hepes pH 7.0, 10 mM MgCl2, 1 mM dithiothreitol, 0.5 mM EGTA, 0.3 mM activated sodium ortho-vanadate, 0.005% (w/v) bovine serum albumin, 0.005% (v/v) Tween-20] were added and the mixture was incubated for 15 min at 22° C. to allow pre-binding of the test compounds to the enzyme before the start of the kinase reaction. […] The concentration of EGFR was adjusted depending of the activity of the enzyme lot and was chosen appropriate to have the assay in the linear range, typical concentration was 7.6 pg/μL. The reaction was stopped by the addition of 3 μL of a solution of HTRF detection reagents (83.3 nM streptavidine-XL665 [Cisbio Bioassays, Codolet, France] and 1.67 nM PT66-Tb-Cryptate, a terbium-cryptate labelled anti-phospho-tyrosine antibody from Cisbio Bioassays [instead of the PT66-Tb-cryptate PT66-Eu-Chelate from Perkin Elmer can also be used]) in an aqueous EDTA-solution (133.3 mM EDTA, 0.2% (w/v) bovine serum albumin in 50 mM HEPES pH 7.5).
The resulting mixture was incubated 1 h at 22° C. to allow the binding of the biotinylated phosphorylated peptide to the streptavidine-XL665 and the PT66-Tb-Cryptate. Subsequently the amount of phosphorylated substrate was evaluated by measurement of the resonance energy transfer from the PT66-Tb-Cryptate to the streptavidine-XL665. Therefore, the fluorescence emissions at 620 nm and 665 nm after excitation at 337 nm were measured in a HTRF reader, e.g. a Pherastar (BMG Labtechnologies, Offenburg, Germany) or a Viewlux (Perkin-Elmer). The ratio of the emissions at 665 nm and at 622 nm was taken as the measure for the amount of phosphorylated substrate.
Background: In TR-FRET formats the signal depends on donor and acceptor labels being close together.

Where [2] appears, read: read-out: EGFR Wildtype 2 mM ATP IC50 [mol/l] (median).

Where two headings read alike, the source gives them in different places. Where only a bound is given, the exact number is not on record here.

Sequence of wild-type Epidermal Growth Factor Receptor (EGFR) (P00533 669-1210): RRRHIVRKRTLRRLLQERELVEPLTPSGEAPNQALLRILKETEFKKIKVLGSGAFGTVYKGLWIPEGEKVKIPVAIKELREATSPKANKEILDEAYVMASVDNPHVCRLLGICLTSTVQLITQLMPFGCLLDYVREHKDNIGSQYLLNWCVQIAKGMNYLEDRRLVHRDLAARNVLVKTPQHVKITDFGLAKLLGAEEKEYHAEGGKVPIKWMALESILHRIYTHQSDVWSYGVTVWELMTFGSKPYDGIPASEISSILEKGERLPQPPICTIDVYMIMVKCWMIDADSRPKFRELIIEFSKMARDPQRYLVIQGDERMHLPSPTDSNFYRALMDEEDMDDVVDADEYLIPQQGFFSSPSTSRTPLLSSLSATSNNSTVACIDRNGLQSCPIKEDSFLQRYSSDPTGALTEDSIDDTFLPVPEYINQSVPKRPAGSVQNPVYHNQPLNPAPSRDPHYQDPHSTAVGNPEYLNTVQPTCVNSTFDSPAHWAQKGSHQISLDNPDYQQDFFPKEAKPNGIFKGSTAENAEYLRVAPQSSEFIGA

On to `CC(C(=O)Nc1cc(-c2[nH]c3ccc(F)nc3c2-c2ccccn2)ccn1)c1ccc(F)cc1` (racemic) [Example 1, 2-(4-fluorophenyl)-N-{4-[5-fluoro-3-(pyridin-2-yl)-1H-pyrrolo[3,2-b]pyridin-2-yl]pyridin-2-yl}propanamide], for which the IC50 is 4.58 nM at CSNK1D and over 20000 nM in test [1] (median).
For `CC(C(=O)Nc1cc(-c2[nH]c3cccnc3c2-c2ccccn2)ccn1)c1ccc(F)cc1` (racemic) [Example 6, 2-(4-fluorophenyl)-N-{4-[3-(pyridin-2-yl)-1H-pyrrolo[3,2-b]pyridin-2-yl]pyridin-2-yl}propanamide] the same measures were 3.37 nM and over 20000 nM.
For `CC(C(=O)Nc1cc(-c2[nH]c3cccnc3c2-c2ccccc2)ccn1)c1ccc(F)cc1` (racemic) [Example 11, 2-(4-fluorophenyl)-N-[4-(3-phenyl-1H-pyrrolo[3,2-b]pyridin-2-yl)pyridin-2-yl]propanamide] the same measures were 7.02 nM and over 20000 nM.
For `Cc1cc2[nH]c(-c3ccnc(NC(=O)C(C)c4ccc(F)cc4)c3)c(-c3ccccn3)c2nc1F` (racemic) [Example 28, N-{4-[5-fluoro-6-methyl-3-(pyridin-2-yl)-1H-pyrrolo[3,2-b]pyridin-2-yl]pyridin-2-yl}-2-(4-fluorophenyl)propanamide] the same measures were 11.3 nM and over 20000 nM.
Turning to `COCC(C(=O)Nc1cc(-c2[nH]c3cccnc3c2-c2ccccn2)ccn1)c1ccc(F)cc1` (racemic) [Example 43, (2RS)-2-(4-fluorophenyl)-3-methoxy-N-(4-(3-(pyridin-2-yl)-1H-pyrrolo[3,2-b]pyridin-2-yl)pyridin-2-yl)propanamide], the IC50 at CSNK1D is 6.46 nM; in test [1] (median), over 20000 nM.
For `COCCC(C(=O)Nc1cc(-c2[nH]c3cccnc3c2-c2ccccn2)ccn1)c1ccc(F)cc1` (racemic) [Example 44] the same measures were 9.84 nM and over 20000 nM.
Take `COCC(C(=O)Nc1cc(-c2[nH]c3cc(F)cnc3c2-c2ccccn2)ccn1)c1ccc(F)cc1` (racemic) [Example 45, (2RS)-2-(4-fluorophenyl)-N-[4-[6-fluoro-3-(2-pyridyl)-1H-pyrrolo[3,2-b]pyridin-2-yl]-2-pyridyl]-3-methoxy-propanamide]: the figures for the IC50 (at CSNK1D; in test [1] (median)) were 12 nM and over 20000 nM, respectively.
Take `CC(C(=O)Nc1cc(-c2[nH]c3ccc(F)nc3c2-c2ccccn2)ccn1)c1ccc(F)cc1` (single isomer, unassigned; (+)) [Example 3, (+)-2-(4-fluorophenyl)-N-{4-[5-fluoro-3-(pyridin-2-yl)-1H-pyrrolo[3,2-b]pyridin-2-yl]pyridin-2-yl}propanamide]: the IC50 on CSNK1D is 2.87 nM; in test [1] (setting [2]) it was over 20000 nM.
For `CC(C(=O)Nc1cc(-c2[nH]c3cccnc3c2-c2ccccn2)ccn1)c1ccc(F)cc1` (single isomer, unassigned; (+)) [Example 7, (+)-2-(4-fluorophenyl)-N-{4-[3-(pyridin-2-yl)-1H-pyrrolo[3,2-b]pyridin-2-yl]pyridin-2-yl}propanamide], the IC50 on CSNK1D is 2.1 nM; in test [1] (median), over 20000 nM.
As for `CC(C)C(C(=O)Nc1cc(-c2[nH]c3ccc(F)nc3c2-c2ccccn2)ccn1)c1ccc(F)cc1` (single isomer, unassigned; (+)) [Example 26, (+)-2-(4-fluorophenyl)-N-{4-[5-fluoro-3-(pyridin-2-yl)-1H-pyrrolo[3,2-b]pyridin-2-yl]pyridin-2-yl}-3-methylbutanamide], the IC50 is 7.62 nM at CSNK1D and over 20000 nM in test [1] (setting [2]).
As to `Cc1cc2[nH]c(-c3ccnc(NC(=O)C(C)c4ccc(F)cc4)c3)c(-c3ccccn3)c2nc1F` (single isomer, unassigned; (+)) [Example 29, (+)-N-{4-[5-fluoro-6-methyl-3-(pyridin-2-yl)-1H-pyrrolo[3,2-b]pyridin-2-yl]pyridin-2-yl}-2-(4-fluorophenyl)propanamide], the IC50 was 30.2 nM on CSNK1D and over 20000 nM in test [1] (median).
On to `CC(C(=O)Nc1cc(-c2[nH]c3ccc(F)nc3c2-c2ccccn2)ccn1)c1ccc(F)cc1` (single isomer, unassigned; (-)) [Example 2, (−)-2-(4-fluorophenyl)-N-{4-[5-fluoro-3-(pyridin-2-yl)-1H-pyrrolo[3,2-b]pyridin-2-yl]pyridin-2-yl}propanamide], for which the values for the IC50 (on CSNK1D; in test [1] (median)) were 32.2 nM and over 20000 nM, respectively.
In the case of `CC(C(=O)Nc1cc(-c2[nH]c3cccnc3c2-c2ccccn2)ccn1)c1ccc(F)cc1` (single isomer, unassigned; (-)) [Example 8, (−)-2-(4-fluorophenyl)-N-{4-[3-(pyridin-2-yl)-1H-pyrrolo[3,2-b]pyridin-2-yl]pyridin-2-yl}propanamide], the IC50 on CSNK1D is 14.6 nM; in test [1] (setting [2]) it was over 20000 nM.
`CC(C)C(C(=O)Nc1cc(-c2[nH]c3ccc(F)nc3c2-c2ccccn2)ccn1)c1ccc(F)cc1` (single isomer, unassigned; (-)) [Example 25, (−)-2-(4-fluorophenyl)-N-{4-[5-fluoro-3-(pyridin-2-yl)-1H-pyrrolo[3,2-b]pyridin-2-yl]pyridin-2-yl}-3-methylbutanamide]: the results for the IC50 (on CSNK1D; in test [1] (median)) were 56.3 nM and over 20000 nM, respectively.
As for `Cc1cc2[nH]c(-c3ccnc(NC(=O)C(C)c4ccc(F)cc4)c3)c(-c3ccccn3)c2nc1F` (single isomer, unassigned; (-)) [Example 30, (−)-N-{4-[5-fluoro-6-methyl-3-(pyridin-2-yl)-1H-pyrrolo[3,2-b]pyridin-2-yl]pyridin-2-yl}-2-(4-fluorophenyl)propanamide], the results for the IC50 (at CSNK1D; in test [1] (setting [2])) were 4.65 nM and over 20000 nM, respectively.
With `O=C(Cc1ccc(F)cc1)Nc1cc(-c2[nH]c3ccc(F)nc3c2-c2ccccn2)ccn1` [Example 4, 2-(4-fluorophenyl)-N-{4-[5-fluoro-3-(pyridin-2-yl)-1H-pyrrolo[3,2-b]pyridin-2-yl]pyridin-2-yl}acetamide], the figures for the IC50 (at CSNK1D; in test [1] (setting [2])) were 2.33 nM and over 20000 nM, respectively.
With `O=C(Cc1ccc(F)cc1)Nc1cc(-c2[nH]c3cccnc3c2-c2ccccn2)ccn1` [Example 5, 2-(4-fluorophenyl)-N-{4-[3-(pyridin-2-yl)-1H-pyrrolo[3,2-b]pyridin-2-yl]pyridin-2-yl}acetamide], the IC50 at CSNK1D was 2.68 nM; in test [1] (setting [2]), over 20000 nM.
